In ChEMBL document CHEMBL1152549, “Synthesis and molecular modeling of some novel hexahydroindazole derivatives as potent monoamine oxidase inhibitors” (Bioorg Med Chem, 2009):

Columns and labels:
[1] = target: T1, Amine oxidase [flavin-containing] B (Rattus norvegicus, UniProt P19643); test: Competitive inhibition of MAOB in rat liver homogenate by spectrophotometrically; assay type: tissue-based
T1 sequence (P19643 whole entry): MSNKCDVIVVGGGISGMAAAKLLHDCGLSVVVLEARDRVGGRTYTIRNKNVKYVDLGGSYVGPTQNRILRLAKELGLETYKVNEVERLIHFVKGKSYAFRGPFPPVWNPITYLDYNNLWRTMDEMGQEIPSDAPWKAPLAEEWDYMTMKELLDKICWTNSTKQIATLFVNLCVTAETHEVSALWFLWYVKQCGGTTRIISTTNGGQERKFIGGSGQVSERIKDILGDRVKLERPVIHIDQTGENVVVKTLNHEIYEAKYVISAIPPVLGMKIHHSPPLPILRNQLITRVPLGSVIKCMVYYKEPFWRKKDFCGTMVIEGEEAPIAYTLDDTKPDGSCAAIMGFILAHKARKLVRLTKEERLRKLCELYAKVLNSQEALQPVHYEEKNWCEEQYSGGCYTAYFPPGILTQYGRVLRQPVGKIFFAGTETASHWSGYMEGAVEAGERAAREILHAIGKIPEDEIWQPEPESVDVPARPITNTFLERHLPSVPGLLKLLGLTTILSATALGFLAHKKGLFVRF

[2] = target: T2, Amine oxidase [flavin-containing] A (Rattus norvegicus, UniProt P21396); test: Competitive inhibition of MAOA in rat liver homogenate by spectrophotometrically; assay type: tissue-based
T2 sequence (P21396 whole entry): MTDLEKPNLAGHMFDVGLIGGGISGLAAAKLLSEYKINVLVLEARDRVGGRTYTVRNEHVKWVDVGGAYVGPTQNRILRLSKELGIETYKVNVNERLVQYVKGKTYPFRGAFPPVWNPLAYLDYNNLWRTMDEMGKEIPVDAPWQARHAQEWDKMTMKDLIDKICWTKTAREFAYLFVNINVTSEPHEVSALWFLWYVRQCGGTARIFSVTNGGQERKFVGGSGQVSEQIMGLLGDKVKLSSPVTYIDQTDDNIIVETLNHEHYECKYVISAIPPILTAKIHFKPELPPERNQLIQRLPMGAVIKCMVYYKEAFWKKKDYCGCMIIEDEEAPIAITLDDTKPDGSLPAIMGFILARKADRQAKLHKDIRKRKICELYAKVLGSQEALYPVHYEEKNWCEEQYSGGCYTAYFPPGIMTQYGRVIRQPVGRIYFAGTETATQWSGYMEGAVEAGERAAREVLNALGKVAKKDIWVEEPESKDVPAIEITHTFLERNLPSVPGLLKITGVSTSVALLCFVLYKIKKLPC

Rattus norvegicus = organism: Rattus norvegicus; test: Selectivity index, ratio of Ki for rat MAOA to Ki for rat MAOB

Row | Compound | IC50 [1] | Ki [1] | IC50 [2] | Ki [2] | Ratio Ki (Rattus norvegicus)
1 | O=C(NCCN1CCOCC1)c1ccc(Cl)cc1 [MOCLOBEMIDE] | 89.5 µM | 1.08 µM |  |  | 
2 | NC(=S)N1NC2=C(CCCC2)C1c1cccs1 (configuration not stated) | 1.26 µM | 0.0009 µM | 95.2 µM | 2.99 µM | 3320
3 | S=C(Nc1ccccc1)N1NC2=C(CCCC2)C1c1cccs1 (configuration not stated) | 75.1 µM | 92.3 µM | 0.7 µM | 0.0391 µM | 0.004
4 | S=C(Nc1ccccc1)N1NC2=C(CCCC2)C1c1ccco1 (configuration not stated) | 80.4 µM | 1.23 µM | 0.78 µM | 0.00422 µM | 0.0034
5 | CNC(=S)N1NC2=C(CCCC2)C1c1ccco1 (configuration not stated) | 2.99 µM | 2.1 µM | 108 µM | 8.82 µM | 4.2
6 | NC(=S)N1NC2=C(CCCC2)C1c1ccco1 (configuration not stated) | 1.37 µM | 0.00096 µM | 80.2 µM | 3.9 µM | 4060
7 | CCNC(=S)N1NC2=C(CCCC2)C1c1ccco1 (configuration not stated) | 2.77 µM | 1.95 µM | 110 µM | 4.26 µM | 2.19
8 | CNC(=S)N1NC2=C(CCCC2)C1c1cccs1 (configuration not stated) | 2.61 µM | 1.69 µM | 62.3 µM | 5.01 µM | 2.96
9 | CCNC(=S)N1NC2=C(CCCC2)C1c1cccs1 (configuration not stated) | 90.1 µM | 3.01 µM | 3.01 µM | 1.72 µM | 0.57
